# Patent US9791449B2, “Ovarian cancer stem cells and methods of isolation and uses thereof” (THE GENERAL HOSPITAL CORPORATION, priority 2011, dated 2017)
# “Also recorded” adds a separate entry of the source.
# How the values were obtained:
# [1] = system: 3+/Ecad− OVCAR-5 cells; test: Colony formation assay of FACS-separated cells; assay type: cell-based, human; details: OVCAR-5 3+/Ecad− cells, 2000 cells in six-well plates, MIS 30 ug/ml or Doxorubicin 30 nM vs media, 14 days
# Method: Colony formation was performed as previously described (4; wei 2010). 3+/Ecad− or 3−/Ecad+ cells separated from the ovarian cancer cell lines were treated with MIS or doxorubicin, cisplatin, or taxol, then plated on 6-well plates containing 2 ml/well complete DMEM medium at 500, 1000, or 2000 cells/well, and incubated for 14 days at 37° C., with a media change at day 7. Cells separated from primary ascites were plated on 12-well plates coated by metrigel or by agarose for colony formation assays at 25,000, 50,000, or 100,000 cells/well. Cells were seeded on 1:2 metrigel or in 0.4% agarose over a 0.8% layer, and incubated for 3-4 weeks at 37° C. At day 14 (cell lines) or day 21 (ascites), plates were washed with 1×PBS, and cells fixed with methanol. Resulting colonies were stained with Giemsa and the stained area captured and analyzed using Image J (Rasband, NIH, USA, http://rsb.info.nih.gov/ij/). Large colonies greater than 4 mm at 10× magnification were also counted and compared.
# [2] = system: OVCAR-5 cells; test: Cell proliferation assay in monolayer (trypan blue count plus flow cytometry); assay type: cell-based, human; details: for proliferation of 3+/Ecad+ population / proliferation of 3+/Ecad− population: OVCAR-5, doxorubicin 60 nM, 1, 2 and 3 days, absolute cell number; for proliferation of total viable cells: unseparated OVCAR-5, doxorubicin 60 nM, 1, 2 and 3 days
# Method: OVCAR-5 cells were seeded in T-75 flasks at different densities (1.6×10^6, 1.2×10^6, 0.8×10^6 cells) with DMEM in 10% FCS, incubated for 24 h, and then treated with either PBS (control) or 60 nM doxorubicin for 24, 48, and 72 h. Cells seeded at 0.8×10^6 were also treated with cisplatin (0.2, 0.5, 1 μM) for 72 h. Harvested total viable cells were counted by trypan blue staining in a hemocytometer and stained with antihuman CD24-PE, anti-mouse/human CD44-APC/Cy7, anti-human Epcam-APC, and anti-human Ecadherin-FITC. Flow cytometry was performed to analyze for the absolute number of 3+/Ecad− and 3+/Ecad+ cells, which were calculated from the total viable cell numbers by analyzing the percentage of each population adjusted for seeding density (1×, 1.5×, and 2×, respectively).
# [3] = system: OVCAR-5 cells; test: Cell cycle analysis by flow cytometry; assay type: cell-based, human
# Method: OVCAR-5 was grown to 50-60% confluency in DMEM with 10% FCS, untreated or treated with 100 μg/mL (714 nM) MIS or 60 nM doxorubicin for 48 h, harvested, and incubated with 10 μg/mL Hoechst 33342 at 37° C. for 30 min or 40 μg/mL propidium iodide (Sigma) at 25° C. for 30 min. Cells were stained with anti-human CD24-PE, anti-mouse/human CD44-APC/Cy7, anti-human Epcam-APC, and anti-human Ecadherin-FITC for 20 min at 4° C. and fixed in paraformaldehyde (1%), and the cell cycle was analyzed using the SORP LSRII.
# [4] = system: MOVCAR-7 and MOVCAR-8 cell lines; test: qPCR of CDK inhibitor mRNAs relative to GAPDH; assay type: cell-based, mouse
# Method: Total microRNA (miRNAs) were extracted from the different cell lines HOSE-4, HOSE-6, OVCAR-5, OVCAR-3, OVCAR-8, IGROV-1, and SKOV-3 using the miRNeasy Mini kit (QIAGEN) and reverse-transcribed to cDNAs using the TaqMan MicroRNA Reverse Transcription Kit (Applied Biosystems). Levels of Let-7c miRNAs were measured by quantitative PCR using TagMan Let-7 probes (Applied Biosystems; part no. 4373167) with U47 RNA as internal standard for normalization. Total mRNAs were also extracted from separated and unseparated OVCAR-5, MOVCAR-7, and MOVCAR-8 cell lines using an RNeasy Mini kit (QIAGEN) and reverse-transcribed to cDNAs using the SuperScript III Reverse Transcription Kit (Invitrogen). Levels of Lin28 and cyclin-dependent kinase (CDK) inhibitor mRNAs were measured by quantitative PCR with GAPDH as an internal standard using the following primers: […]
# LIN28 F ([…])(SEQ ID NO: 34) and R ([…])(SEQ ID NO: 35); p15 F ([…])(SEQ ID NO: 36) and R ([…])(SEQ ID NO: 37); p16 F ([…])(SEQ ID NO: 38) and R ([…])(SEQ ID NO: 39); p18 F ([…])(SEQ ID NO: 40) and R ([…])(SEQ ID NO: 41); p19F ([…])(SEQ ID NO: 42) and R ([…])(SEQ ID NO: 43); p21 F ([…])(SEQ ID NO: 44) and R ([…])(SEQ ID NO: 45); p27 F ([…])(SEQ ID NO: 46) and R ([…])(SEQ ID NO: 47); CDK2 F ([…])(SEQ ID NO: 48) and R ([…])(SEQ ID NO: 49); CDK4 F ([…])(SEQ ID NO: 50) and R([…])(SEQ ID NO: 51); CDK6 F ([…])(SEQ ID NO: 52) and R ([…])(SEQ ID NO: 53); and GAPDH F ([…])(SEQ ID NO: 54) and R ([…])(SEQ ID NO: 55). Relative fold changes of Let-7c miRNAs and Lin28 and CDK inhibitor mRNAs were calculated as ΔCt or ΔΔCt (1) (n=3 for each primer).
# [5] = system: ovarian cancer cells marked by CD44, CD24, and Epcam (3+); details: after treatment with chemotherapeutics; cited from earlier work
smiles,measurement,setting,value
"COc1cccc2c1C(=O)c1c(O)c3c(c(O)c1C2=O)C[C@@](O)(C(=O)CO)C[C@@H]3O[C@H]1C[C@H](N)[C@H](O)[C@H](C)O1 [doxorubicin, reference compound]",colony formation of 3+/Ecad− cells,[1],significantly increased number of colonies; also recorded: significantly increases; also recorded: stimulated; also recorded: paradoxically increased; also recorded: significantly increased colony numbers
same,colony formation of 3+/Ecad− cells,[1]; listed as Doxorubicin,paradoxically increased significantly
same,proliferation of 3+/Ecad+ population,[2],decreased
same,proliferation of 3+/Ecad− population,[2],paradoxically increased
same,proliferation of 3+/Ecad+ population,[2]; listed as Doxorubicin,inhibits proliferation
same,proliferation of 3+/Ecad− population,[2]; listed as Doxorubicin,stimulates
same,proliferation of total viable cells,[2],significant inhibition
same,proliferation of total viable cells,[2]; listed as Doxorubicin,inhibits proliferation
same,percentage of 3+/Ecad− cells in G1,"[3]; 100 μg/mL (714 nM) MIS or 60 nM doxorubicin, 48 h",decreased
same,S or G2 distributions of either 3+Ecad− or 3−Ecad+,"[3]; doxorubicin 60 nM, 2 d",did not statistically affect
same,p15 expression,"[4]; MOVCAR-7 and -8, 50 μg/mL MIS or 60 nM doxorubicin vs vehicle, 4 h",decreased; also recorded: significant and opposite responses
same,"other CDK inhibitors mRNA levels (p18, p19, p21, p27)","[4]; MOVCAR-7 or -8, 50 μg/mL MIS or 60 nM doxorubicin, 4 h",did not regulate significantly
same,"kinases tested (CDK2, CDK4, CDK6)","[4]; transgenic cell lines treated with MIS or doxorubicin, data not shown",unaffected
same,relative numbers of 3+ enriched population compared to 3− cells,[5],increased
